Results as given in the kinase profiling compilation of Christmann-Franck et al. (2016).

Experiments:
Experiment in all cases: KINOMEscan competition binding
Conditions in all cases: compound 10.0 µM
MAP2K4 (human) = MAP2K4 (human) (UniProt P45985)
RPS6KA1 KD2 (human) = RPS6KA1 KD2 (human) (UniProt Q15418)
[1] = tested on: FLT3 (human), P36888 [ITD]
CSNK1G3 (human) = CSNK1G3 (human) (UniProt Q9Y6M4)
MAP3K5 (human) = MAP3K5 (human) (UniProt Q99683)
STK33 (human) = STK33 (human) (UniProt Q9BYT3)
RPS6KA5 KD2 (human) = RPS6KA5 KD2 (human) (UniProt O75582)
MYLK (human) = MYLK (human) (UniProt Q15746)
PIP5K1A (human) = PIP5K1A (human) (UniProt Q99755)
RIPK4 (human) = RIPK4 (human) (UniProt P57078)
[2] = tested on: KIT (human), P10721 [V559D/T670I]
MAP4K4 (human) = MAP4K4 (human) (UniProt O95819)
[3] = biological target: TYK2 JH2 pseudokinase (human) (UniProt P29597)
PIK3CG (human) = PIK3CG (human) (UniProt P48736)
[4] = tested on: FLT3 (human), P36888 [D835H]
PIP4K2B (human) = PIP4K2B (human) (UniProt P78356)
[5] = tested on: FLT3 (human), P36888 [N841I]
HIPK1 (human) = HIPK1 (human) (UniProt Q86Z02)
DMPK (human) = DMPK (human) (UniProt Q09013)
PDGFRB (human) = PDGFRB (human) (UniProt P09619)
[6] = tested on: EGFR (human), P00533 [747-751 del / S ins]
DAPK3 (human) = DAPK3 (human) (UniProt O43293)
[7] = biological target: JAK3 JH1 catalytic (human) (UniProt P52333)
CAMKK1 (human) = CAMKK1 (human) (UniProt Q8N5S9)
MYLK4 (human) = MYLK4 (human) (UniProt Q86YV6)
TAOK1 (human) = TAOK1 (human) (UniProt Q7L7X3)
CDK16 (human) = CDK16 (human) (UniProt Q00536)
CHUK (human) = CHUK (human) (UniProt O15111)
STK17A (human) = STK17A (human) (UniProt Q9UEE5)
[8] = biological target: JAK1 JH2 pseudokinase (human) (UniProt P23458)
RPS6KA2 KD2 (human) = RPS6KA2 KD2 (human) (UniProt Q15349)
PRKD3 (human) = PRKD3 (human) (UniProt O94806)
[9] = tested on: EGFR (human), P00533 [G719S]
PRKD1 (human) = PRKD1 (human) (UniProt Q15139)
[10] = tested on: FLT3 (human), P36888 [K663Q]
RIOK1 (human) = RIOK1 (human) (UniProt Q9BRS2)
CLK1 (human) = CLK1 (human) (UniProt P49759)
CSNK1E (human) = CSNK1E (human) (UniProt P49674)
[11] = tested on: KIT (human), P10721 [D816V]
STK17B (human) = STK17B (human) (UniProt O94768)
CLK3 (human) = CLK3 (human) (UniProt P49761)
DAPK2 (human) = DAPK2 (human) (UniProt Q9UIK4)

Sequence of CAMKK1 (human) (Q8N5S9 whole entry, looked up): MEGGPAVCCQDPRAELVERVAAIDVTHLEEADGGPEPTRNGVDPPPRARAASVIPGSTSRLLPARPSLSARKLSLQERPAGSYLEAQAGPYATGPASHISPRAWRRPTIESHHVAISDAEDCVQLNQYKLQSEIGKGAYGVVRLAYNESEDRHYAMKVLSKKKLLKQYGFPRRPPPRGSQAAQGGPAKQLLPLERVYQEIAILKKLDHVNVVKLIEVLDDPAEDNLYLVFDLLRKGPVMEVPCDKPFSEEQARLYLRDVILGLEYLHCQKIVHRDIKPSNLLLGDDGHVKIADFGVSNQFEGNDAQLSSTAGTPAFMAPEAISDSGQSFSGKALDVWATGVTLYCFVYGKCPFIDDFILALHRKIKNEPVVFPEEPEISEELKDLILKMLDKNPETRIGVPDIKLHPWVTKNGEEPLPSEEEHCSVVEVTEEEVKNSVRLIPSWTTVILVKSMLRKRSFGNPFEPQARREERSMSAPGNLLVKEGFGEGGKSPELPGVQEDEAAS
Sequence of STK17B (human) (O94768 whole entry, looked up): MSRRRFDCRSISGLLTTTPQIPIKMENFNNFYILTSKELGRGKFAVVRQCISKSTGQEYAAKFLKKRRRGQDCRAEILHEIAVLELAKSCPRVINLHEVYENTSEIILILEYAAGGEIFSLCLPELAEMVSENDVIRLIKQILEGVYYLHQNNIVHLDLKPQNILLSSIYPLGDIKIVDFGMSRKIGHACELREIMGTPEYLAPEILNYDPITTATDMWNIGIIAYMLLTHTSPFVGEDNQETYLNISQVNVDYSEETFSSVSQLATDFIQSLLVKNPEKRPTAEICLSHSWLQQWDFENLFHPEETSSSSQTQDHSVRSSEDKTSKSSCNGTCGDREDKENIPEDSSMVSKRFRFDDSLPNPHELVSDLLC
Sequence of JAK3 JH1 catalytic (human) (P52333 whole entry, looked up): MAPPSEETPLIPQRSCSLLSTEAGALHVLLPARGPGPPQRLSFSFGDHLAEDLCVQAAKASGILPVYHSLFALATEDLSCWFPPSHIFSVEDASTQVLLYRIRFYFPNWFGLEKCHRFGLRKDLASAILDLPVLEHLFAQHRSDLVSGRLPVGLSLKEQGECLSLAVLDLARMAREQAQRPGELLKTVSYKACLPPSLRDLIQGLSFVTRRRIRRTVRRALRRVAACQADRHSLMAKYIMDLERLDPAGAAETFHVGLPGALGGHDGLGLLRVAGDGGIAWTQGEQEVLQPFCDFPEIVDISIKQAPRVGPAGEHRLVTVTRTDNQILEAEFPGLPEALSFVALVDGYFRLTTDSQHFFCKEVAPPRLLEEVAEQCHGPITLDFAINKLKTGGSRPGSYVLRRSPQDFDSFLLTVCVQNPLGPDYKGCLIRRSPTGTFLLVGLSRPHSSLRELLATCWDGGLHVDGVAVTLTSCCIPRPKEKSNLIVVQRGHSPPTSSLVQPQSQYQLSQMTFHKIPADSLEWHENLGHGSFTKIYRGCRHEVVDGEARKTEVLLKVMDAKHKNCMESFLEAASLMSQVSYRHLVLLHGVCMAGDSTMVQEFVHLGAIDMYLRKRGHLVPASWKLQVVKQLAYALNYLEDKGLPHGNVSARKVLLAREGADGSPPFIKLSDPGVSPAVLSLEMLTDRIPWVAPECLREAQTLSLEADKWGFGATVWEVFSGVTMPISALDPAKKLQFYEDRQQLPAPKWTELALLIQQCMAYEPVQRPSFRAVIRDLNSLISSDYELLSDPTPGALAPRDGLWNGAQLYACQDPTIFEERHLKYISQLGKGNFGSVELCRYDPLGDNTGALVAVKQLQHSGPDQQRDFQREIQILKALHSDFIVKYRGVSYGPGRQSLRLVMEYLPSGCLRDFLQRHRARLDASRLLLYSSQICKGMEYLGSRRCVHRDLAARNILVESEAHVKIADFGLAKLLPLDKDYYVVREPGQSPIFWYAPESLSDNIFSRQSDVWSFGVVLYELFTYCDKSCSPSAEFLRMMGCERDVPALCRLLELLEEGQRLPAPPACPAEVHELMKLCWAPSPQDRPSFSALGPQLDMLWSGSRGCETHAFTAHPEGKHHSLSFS
Sequence of CHUK (human) (O15111 whole entry, looked up): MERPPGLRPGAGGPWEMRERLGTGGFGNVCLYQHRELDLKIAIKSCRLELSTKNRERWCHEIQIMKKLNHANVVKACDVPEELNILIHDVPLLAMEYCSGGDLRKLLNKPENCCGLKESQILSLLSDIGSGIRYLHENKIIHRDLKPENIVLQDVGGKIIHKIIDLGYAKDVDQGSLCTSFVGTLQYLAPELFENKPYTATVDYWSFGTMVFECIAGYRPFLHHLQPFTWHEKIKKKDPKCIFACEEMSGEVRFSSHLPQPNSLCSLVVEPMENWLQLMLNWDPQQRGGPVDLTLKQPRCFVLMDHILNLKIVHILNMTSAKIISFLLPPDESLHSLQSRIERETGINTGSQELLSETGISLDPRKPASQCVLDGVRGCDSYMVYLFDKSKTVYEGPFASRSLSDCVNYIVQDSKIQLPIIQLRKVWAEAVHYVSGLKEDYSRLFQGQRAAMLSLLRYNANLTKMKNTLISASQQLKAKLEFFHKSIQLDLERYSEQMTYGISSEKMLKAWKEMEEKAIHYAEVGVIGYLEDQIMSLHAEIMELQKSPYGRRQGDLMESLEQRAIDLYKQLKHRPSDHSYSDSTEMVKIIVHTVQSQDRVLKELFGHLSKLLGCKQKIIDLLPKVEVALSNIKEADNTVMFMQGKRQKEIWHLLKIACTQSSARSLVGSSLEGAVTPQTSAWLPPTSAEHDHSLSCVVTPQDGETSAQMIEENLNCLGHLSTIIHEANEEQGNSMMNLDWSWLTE
Sequence of PIK3CG (human) (P48736 whole entry, looked up): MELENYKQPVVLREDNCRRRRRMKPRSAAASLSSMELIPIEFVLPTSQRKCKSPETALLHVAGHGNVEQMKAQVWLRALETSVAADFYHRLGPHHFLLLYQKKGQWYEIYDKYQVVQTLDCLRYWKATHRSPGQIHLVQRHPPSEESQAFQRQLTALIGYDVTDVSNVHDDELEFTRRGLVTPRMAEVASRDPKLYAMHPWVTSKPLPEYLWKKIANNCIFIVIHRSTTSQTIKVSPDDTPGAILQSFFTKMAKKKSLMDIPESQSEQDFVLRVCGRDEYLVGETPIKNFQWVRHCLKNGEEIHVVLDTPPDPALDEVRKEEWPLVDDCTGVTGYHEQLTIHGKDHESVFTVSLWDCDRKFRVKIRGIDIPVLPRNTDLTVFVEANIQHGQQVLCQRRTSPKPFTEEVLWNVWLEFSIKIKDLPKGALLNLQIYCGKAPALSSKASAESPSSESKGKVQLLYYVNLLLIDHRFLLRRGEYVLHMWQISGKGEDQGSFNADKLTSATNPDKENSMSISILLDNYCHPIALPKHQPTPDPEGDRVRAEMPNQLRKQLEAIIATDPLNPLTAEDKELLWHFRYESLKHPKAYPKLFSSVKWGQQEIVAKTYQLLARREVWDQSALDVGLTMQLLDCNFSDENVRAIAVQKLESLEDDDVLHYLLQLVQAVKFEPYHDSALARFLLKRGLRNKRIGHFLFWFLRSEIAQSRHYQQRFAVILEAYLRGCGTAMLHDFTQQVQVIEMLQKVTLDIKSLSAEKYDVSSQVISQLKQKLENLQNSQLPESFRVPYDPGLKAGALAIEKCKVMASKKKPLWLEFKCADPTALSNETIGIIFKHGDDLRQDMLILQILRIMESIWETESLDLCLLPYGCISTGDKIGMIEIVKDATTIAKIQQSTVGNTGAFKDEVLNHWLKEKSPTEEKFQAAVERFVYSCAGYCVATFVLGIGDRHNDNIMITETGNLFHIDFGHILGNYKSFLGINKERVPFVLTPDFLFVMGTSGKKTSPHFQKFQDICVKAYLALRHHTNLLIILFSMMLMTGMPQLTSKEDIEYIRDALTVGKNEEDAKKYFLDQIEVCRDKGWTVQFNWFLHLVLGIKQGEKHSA
Sequence of DAPK3 (human) (O43293 whole entry, looked up): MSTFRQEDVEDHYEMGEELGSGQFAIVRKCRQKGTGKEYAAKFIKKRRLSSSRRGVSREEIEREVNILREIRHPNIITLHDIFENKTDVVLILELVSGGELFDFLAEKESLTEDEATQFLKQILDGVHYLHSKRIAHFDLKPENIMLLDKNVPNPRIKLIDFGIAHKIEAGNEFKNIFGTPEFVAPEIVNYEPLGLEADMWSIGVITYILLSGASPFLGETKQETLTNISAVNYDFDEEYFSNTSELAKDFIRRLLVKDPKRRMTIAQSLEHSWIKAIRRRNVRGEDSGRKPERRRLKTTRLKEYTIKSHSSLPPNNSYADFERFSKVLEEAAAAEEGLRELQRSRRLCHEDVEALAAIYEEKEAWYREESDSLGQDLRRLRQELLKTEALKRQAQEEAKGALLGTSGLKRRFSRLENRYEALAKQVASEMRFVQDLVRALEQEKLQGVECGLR
Sequence of STK33 (human) (Q9BYT3 whole entry, looked up): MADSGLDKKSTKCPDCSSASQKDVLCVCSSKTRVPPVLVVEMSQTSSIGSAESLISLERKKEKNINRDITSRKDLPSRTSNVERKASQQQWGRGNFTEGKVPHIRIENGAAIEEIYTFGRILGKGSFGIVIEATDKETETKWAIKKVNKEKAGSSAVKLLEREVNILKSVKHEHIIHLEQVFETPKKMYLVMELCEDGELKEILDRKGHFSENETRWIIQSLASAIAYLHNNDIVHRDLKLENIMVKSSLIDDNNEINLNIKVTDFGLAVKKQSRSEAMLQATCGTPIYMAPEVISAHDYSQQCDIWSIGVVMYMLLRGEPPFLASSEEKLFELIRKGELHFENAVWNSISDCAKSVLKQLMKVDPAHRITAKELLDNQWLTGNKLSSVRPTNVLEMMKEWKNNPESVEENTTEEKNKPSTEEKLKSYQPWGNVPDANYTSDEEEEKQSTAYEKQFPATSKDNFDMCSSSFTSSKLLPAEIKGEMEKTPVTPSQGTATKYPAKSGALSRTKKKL

**Q.** What does the source list for `COc1cc(N2CCN(C)CC2)ccc1Nc1ncc2c(n1)N(C)c1ccccc1N(C)C2=O`?
**A.** kinase still bound, per cent of control (MAP2K4 (human)): 98%; kinase still bound, per cent of control (RPS6KA1 KD2 (human)): 56%; kinase still bound, per cent of control [1]: 92%; kinase still bound, per cent of control (CSNK1G3 (human)): 98%; kinase still bound, per cent of control (MAP3K5 (human)): 100%; kinase still bound, per cent of control (STK33 (human)): 58%; kinase still bound, per cent of control (RPS6KA5 KD2 (human)): 93%; kinase still bound, per cent of control (MYLK (human)): 97%; kinase still bound, per cent of control (PIP5K1A (human)): 95%; kinase still bound, per cent of control (RIPK4 (human)): 100%; kinase still bound, per cent of control [2]: 84%; kinase still bound, per cent of control (MAP4K4 (human)): 85%; kinase still bound, per cent of control [3]: 100%; kinase still bound, per cent of control (PIK3CG (human)): 100%; kinase still bound, per cent of control [4]: 86%; kinase still bound, per cent of control (PIP4K2B (human)): 91%; kinase still bound, per cent of control [5]: 92%; kinase still bound, per cent of control (HIPK1 (human)): 68%; kinase still bound, per cent of control (DMPK (human)): 100%; kinase still bound, per cent of control (PDGFRB (human)): 98%; kinase still bound, per cent of control [6]: 92%; kinase still bound, per cent of control (DAPK3 (human)): 98%; kinase still bound, per cent of control [7]: 100%; kinase still bound, per cent of control (CAMKK1 (human)): 73%; kinase still bound, per cent of control (MYLK4 (human)): 100%; kinase still bound, per cent of control (TAOK1 (human)): 100%; kinase still bound, per cent of control (CDK16 (human)): 93%; kinase still bound, per cent of control (CHUK (human)): 60%; kinase still bound, per cent of control (STK17A (human)): 100%; kinase still bound, per cent of control [8]: 97%; kinase still bound, per cent of control (RPS6KA2 KD2 (human)): 97%; kinase still bound, per cent of control (PRKD3 (human)): 85%; kinase still bound, per cent of control [9]: 90%; kinase still bound, per cent of control (PRKD1 (human)): 87%; kinase still bound, per cent of control [10]: 92%; kinase still bound, per cent of control (RIOK1 (human)): 78%; kinase still bound, per cent of control (CLK1 (human)): 66%; kinase still bound, per cent of control (CSNK1E (human)): 56%; kinase still bound, per cent of control [11]: 100%; kinase still bound, per cent of control (STK17B (human)): 100%; kinase still bound, per cent of control (CLK3 (human)): 100%; kinase still bound, per cent of control (DAPK2 (human)): 84%
